The text below walks through data of US11096909B2, “Compounds for use in the treatment of cancer” (University of Oulu, priority 2016, dated 2021).

Broadly, the IC50 is the midpoint of a concentration-inhibition curve. One may read the ΔTm as the change in melting temperature against a reference sample.

In one data set the target is ARTD12/PARP12 (Homo sapiens, UniProt Q9H0J9). In words: biochemical.
The next data set has as its target T1, ARTD7/PARP15 (Homo sapiens, UniProt Q460N3).
T1 sequence (Q460N3 1-678): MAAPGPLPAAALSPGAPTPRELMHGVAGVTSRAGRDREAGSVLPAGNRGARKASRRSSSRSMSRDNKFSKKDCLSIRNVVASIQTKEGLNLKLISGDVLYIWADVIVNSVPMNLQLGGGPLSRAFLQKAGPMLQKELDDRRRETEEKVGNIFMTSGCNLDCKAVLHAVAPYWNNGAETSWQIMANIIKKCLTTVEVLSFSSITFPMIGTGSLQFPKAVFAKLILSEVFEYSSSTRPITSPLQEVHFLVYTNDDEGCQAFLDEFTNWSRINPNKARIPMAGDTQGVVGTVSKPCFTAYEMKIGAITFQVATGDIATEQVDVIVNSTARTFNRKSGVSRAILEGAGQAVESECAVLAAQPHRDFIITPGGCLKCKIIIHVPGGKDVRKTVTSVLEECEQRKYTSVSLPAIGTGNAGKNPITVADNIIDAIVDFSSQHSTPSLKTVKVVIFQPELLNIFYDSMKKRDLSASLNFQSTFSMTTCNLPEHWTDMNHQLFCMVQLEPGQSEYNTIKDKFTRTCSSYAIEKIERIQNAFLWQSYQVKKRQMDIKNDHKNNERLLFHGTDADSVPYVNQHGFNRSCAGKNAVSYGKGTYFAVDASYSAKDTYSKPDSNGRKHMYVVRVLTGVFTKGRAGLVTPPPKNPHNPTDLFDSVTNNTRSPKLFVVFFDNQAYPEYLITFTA
In words: biochemical.

Data set [1] deals with T2, ARTD3/PARP3 (Homo sapiens, UniProt Q9Y6F1).
T2 construct: made in house; host or cells: E. coli
T2 sequence (Q9Y6F1 1-533): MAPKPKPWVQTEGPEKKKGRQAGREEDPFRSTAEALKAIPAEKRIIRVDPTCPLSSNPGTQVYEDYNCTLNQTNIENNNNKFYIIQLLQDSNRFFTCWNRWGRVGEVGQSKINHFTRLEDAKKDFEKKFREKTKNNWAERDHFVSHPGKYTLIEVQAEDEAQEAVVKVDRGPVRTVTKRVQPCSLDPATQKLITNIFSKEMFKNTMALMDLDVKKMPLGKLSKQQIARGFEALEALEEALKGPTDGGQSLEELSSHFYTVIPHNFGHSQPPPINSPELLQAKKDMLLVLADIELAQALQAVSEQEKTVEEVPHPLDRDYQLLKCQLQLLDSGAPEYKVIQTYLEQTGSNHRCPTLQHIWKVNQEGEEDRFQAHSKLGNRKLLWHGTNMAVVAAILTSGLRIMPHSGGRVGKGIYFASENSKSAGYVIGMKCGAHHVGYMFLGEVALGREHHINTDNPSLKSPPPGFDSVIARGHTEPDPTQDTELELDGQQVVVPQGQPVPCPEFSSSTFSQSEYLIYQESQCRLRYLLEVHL
The data set can be described thus: Activity-based fluorescent assay, ARTD3. Format: biochemical.

Data set [2] deals with HeLa cells overexpressing ARTD10. The data set can be described thus: Colony formation assay. The data set is classed as cell-based. The conditions noted are these: control cells (ARTD10 not induced), 10 μM compound.
Experimental: The different compounds were added as indicated with a final concentration of 10 μM. These were replenished every 48 h. (b) Quantification of the colony formation results. The data represent mean values of three independent experiments performed in duplicates with standard deviations.
The cells were grown in DMEM culture media with 10% FCS, and the plates were incubated at 37° C. with 5% CO2. After 24 h of seeding, over expression of ARTD10 was induced by adding 500 ng/ml doxycycline and the media were also supplemented with the tested compounds at 10 μM concentrations. The cells were allowed to proliferate for the next 10 days, after which they were stained with methylene blue to count the number of surviving colonies. The compounds and doxycycline were replenished every 48 h while fresh media (DMEM supplemented with 10% FCS) was added every four days.
A further data set concerns the target T3, ARTD15/PARP16 (Homo sapiens, UniProt Q8N5Y8).
T3 sequence (Q8N5Y8 94-279 limits assumed): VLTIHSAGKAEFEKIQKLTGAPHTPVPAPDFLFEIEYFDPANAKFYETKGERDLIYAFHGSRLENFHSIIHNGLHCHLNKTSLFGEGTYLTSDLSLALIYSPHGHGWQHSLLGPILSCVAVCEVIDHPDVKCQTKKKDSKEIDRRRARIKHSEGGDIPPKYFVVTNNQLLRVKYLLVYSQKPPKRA
In words: Differential scanning fluorimetry, ARTD15. In general terms: Differential scanning fluorimetry follows unfolding on heating by fluorescence.

The target of the next data set is T4, ARTD6/PARP5b (Homo sapiens, UniProt Q9H2K2).
T4 construct: made in house; host or cells: E. coli
T4 sequence (Q9H2K2 1-1166): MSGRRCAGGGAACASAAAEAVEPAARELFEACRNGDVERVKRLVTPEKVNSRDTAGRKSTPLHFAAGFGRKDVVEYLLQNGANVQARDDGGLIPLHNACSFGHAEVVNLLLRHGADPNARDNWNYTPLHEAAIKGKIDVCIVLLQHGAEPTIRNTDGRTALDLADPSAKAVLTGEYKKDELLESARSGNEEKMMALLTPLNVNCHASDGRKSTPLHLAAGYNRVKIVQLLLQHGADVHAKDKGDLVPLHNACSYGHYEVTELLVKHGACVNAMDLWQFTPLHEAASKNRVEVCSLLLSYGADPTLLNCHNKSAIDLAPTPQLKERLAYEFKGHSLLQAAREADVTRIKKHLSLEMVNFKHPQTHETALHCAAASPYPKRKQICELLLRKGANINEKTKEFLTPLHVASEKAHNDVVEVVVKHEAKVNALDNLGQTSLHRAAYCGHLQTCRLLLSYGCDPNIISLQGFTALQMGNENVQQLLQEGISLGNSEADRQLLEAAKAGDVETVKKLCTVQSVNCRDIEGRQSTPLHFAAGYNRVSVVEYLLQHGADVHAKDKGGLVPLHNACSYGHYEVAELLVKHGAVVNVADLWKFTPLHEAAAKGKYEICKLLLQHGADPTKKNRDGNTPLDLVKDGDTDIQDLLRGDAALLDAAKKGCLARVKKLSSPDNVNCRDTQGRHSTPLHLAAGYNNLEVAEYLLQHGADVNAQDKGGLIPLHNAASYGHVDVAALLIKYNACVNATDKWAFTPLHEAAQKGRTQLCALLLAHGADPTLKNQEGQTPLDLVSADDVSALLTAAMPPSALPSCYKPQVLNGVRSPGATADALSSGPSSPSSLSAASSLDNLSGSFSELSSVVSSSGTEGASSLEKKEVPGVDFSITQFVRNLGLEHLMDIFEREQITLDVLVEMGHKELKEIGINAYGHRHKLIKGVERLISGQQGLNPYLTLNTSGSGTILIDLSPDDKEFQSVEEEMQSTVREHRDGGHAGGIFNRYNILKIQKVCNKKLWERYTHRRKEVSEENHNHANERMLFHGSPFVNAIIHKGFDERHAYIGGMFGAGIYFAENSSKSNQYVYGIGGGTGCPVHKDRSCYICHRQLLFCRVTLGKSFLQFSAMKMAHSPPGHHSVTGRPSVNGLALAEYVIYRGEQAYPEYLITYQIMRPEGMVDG
The data set can be described thus: Activity-based fluorescent assay, ARTD6. The data set is classed as biochemical.

For the next data set, the target named is T5, ARTD5/PARP5a (Homo sapiens, UniProt O95271).
T5 construct: made in house; host or cells: E. coli
T5 sequence (O95271 1-1327): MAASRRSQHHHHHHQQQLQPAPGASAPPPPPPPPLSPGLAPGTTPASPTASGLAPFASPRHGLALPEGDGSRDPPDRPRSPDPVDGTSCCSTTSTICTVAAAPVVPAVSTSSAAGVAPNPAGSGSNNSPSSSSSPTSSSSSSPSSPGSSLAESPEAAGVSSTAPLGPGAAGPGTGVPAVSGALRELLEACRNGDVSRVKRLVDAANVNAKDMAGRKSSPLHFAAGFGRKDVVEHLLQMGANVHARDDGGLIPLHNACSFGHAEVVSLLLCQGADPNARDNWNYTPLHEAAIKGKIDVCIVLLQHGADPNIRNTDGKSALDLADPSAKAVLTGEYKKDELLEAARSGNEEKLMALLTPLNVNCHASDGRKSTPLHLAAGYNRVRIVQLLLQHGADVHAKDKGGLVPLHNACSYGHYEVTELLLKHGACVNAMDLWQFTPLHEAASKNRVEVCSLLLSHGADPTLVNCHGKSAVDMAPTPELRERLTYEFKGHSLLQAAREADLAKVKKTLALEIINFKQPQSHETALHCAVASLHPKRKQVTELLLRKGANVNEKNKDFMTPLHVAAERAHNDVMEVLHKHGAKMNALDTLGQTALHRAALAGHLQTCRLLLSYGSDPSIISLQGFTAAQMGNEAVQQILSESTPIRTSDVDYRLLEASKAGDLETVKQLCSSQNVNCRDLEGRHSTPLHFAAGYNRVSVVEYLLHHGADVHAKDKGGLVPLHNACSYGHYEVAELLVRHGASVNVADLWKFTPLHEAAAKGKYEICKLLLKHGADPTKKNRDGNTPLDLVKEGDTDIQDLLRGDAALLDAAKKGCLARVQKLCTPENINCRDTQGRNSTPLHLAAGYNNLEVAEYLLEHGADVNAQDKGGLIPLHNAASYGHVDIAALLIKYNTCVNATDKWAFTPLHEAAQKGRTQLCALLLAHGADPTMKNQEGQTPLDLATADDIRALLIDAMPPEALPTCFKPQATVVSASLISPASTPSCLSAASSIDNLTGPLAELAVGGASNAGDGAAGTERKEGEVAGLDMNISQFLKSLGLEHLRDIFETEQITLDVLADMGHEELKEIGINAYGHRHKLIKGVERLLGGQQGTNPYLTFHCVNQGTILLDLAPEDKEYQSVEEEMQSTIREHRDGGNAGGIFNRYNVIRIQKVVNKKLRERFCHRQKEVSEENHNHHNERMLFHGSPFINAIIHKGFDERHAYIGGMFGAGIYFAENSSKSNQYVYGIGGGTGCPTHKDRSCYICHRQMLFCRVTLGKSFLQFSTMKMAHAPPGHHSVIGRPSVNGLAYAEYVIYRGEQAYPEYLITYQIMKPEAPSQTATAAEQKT
In words: Activity-based fluorescent assay, ARTD5. The data set is classed as biochemical.

Data set [3] concerns the target T6, ARTD4/PARP4 (Homo sapiens, UniProt Q9UKK3). The data set can be described thus: Differential scanning fluorimetry, ARTD4. The conditions noted are these: read-out: ΔTm (DSF), ° C. ± STDEV.
For data set [4], the target named is T6, ARTD4/PARP4. In words: Activity-based fluorescent assay, ARTD4. Format: biochemical. Also on record: made in house; host or cells: E. coli.
In another data set the test system is HeLa cells. The data set can be described thus: Cytotoxicity in HeLa cells. The data set is classed as cell-based. The conditions noted are these: 10 μM.
Data set [5] deals with T2, ARTD3/PARP3. The data set can be described thus: Differential scanning fluorimetry, ARTD3. Conditions: read-out: ΔTm (DSF), ° C. ± STDEV. Format: binding.
Data set [6] deals with HeLa cells treated with hydroxyurea. In words: DNA damage experiments with hydroxyurea. The data set is classed as cell-based. Conditions: 5 μM OUL35 combined with hydroxyurea, cell confluence at 72 hours. As to the method: FIG. 4. […] Cell confluence is indicated at 72 hours (n=5, data present mean±SEM, n.s=not significant, *P<0.05, **P<0.01).
HeLa cells (ATCC) were grown in Dulbecco's modified Eagle's medium (DMEM, Sigma) supplemented with 10% fetal bovine serum (Lonza), 1× penicillin and streptomycin (Sigma) at 37° C. in a 5% CO2 atmosphere. 4000 cells/well were plated on 96-well plates. […] The DMSO content was kept below 0.05% in all experiments. The 96-well plates were placed in an IncuCyte ZOOM live cell imaging system (Essen BioScience) to follow the cell growth. The plates were scanned in the IncuCyte at 2 hour intervals for 72 hours. Data were analyzed by the IncuCyte Zoom software (Essen BioScience). The results are representative of three (cell growth curves) or five independent experiments (72 h end points) each done in six replicates. P values less than 0.05 were considered as significant (n.s=not statistically significant, *P<0.05, **P<0.01).

T6 sequence (Q9UKK3 whole entry): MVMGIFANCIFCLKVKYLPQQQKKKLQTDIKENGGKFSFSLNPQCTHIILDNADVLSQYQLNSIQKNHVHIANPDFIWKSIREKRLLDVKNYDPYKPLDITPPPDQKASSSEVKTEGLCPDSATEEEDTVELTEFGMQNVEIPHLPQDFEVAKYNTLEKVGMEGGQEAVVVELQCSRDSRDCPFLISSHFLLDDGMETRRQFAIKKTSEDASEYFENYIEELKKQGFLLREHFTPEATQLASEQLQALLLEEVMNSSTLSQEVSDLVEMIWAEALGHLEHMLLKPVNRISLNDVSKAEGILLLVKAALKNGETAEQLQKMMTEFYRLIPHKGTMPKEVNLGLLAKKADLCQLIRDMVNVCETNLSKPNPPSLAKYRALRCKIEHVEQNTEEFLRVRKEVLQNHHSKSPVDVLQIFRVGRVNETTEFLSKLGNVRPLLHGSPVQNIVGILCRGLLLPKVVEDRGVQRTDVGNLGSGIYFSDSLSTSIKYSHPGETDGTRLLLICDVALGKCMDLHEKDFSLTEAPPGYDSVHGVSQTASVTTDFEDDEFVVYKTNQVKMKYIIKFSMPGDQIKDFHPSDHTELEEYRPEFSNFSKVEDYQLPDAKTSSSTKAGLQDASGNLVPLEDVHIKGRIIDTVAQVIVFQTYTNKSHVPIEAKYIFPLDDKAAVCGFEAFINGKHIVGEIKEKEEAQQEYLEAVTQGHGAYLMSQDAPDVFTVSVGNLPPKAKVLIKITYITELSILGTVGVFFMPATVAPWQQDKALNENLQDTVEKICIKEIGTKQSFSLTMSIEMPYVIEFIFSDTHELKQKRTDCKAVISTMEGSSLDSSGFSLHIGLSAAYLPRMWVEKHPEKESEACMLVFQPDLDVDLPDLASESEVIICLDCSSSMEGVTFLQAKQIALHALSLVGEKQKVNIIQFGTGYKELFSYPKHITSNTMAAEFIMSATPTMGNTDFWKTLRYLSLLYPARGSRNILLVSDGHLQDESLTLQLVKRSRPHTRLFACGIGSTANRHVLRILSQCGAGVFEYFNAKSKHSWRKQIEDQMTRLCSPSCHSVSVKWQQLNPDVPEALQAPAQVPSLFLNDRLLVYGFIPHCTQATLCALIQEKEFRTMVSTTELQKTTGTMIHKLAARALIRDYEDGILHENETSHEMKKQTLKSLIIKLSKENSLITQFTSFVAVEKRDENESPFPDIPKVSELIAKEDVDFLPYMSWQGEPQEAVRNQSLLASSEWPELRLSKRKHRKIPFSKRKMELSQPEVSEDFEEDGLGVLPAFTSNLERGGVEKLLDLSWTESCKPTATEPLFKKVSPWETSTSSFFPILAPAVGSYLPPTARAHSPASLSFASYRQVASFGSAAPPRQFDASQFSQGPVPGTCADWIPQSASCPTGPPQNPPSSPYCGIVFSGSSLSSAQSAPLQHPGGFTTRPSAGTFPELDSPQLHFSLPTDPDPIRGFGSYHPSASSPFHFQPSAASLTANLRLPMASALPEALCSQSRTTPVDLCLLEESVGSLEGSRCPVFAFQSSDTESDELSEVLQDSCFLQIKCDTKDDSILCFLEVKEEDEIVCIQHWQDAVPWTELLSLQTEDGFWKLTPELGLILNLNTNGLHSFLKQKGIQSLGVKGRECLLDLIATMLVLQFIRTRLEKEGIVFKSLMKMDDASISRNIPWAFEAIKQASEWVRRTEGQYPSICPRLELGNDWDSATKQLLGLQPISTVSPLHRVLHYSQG
Chain of ARTD12/PARP12 (Q9H0J9 whole entry): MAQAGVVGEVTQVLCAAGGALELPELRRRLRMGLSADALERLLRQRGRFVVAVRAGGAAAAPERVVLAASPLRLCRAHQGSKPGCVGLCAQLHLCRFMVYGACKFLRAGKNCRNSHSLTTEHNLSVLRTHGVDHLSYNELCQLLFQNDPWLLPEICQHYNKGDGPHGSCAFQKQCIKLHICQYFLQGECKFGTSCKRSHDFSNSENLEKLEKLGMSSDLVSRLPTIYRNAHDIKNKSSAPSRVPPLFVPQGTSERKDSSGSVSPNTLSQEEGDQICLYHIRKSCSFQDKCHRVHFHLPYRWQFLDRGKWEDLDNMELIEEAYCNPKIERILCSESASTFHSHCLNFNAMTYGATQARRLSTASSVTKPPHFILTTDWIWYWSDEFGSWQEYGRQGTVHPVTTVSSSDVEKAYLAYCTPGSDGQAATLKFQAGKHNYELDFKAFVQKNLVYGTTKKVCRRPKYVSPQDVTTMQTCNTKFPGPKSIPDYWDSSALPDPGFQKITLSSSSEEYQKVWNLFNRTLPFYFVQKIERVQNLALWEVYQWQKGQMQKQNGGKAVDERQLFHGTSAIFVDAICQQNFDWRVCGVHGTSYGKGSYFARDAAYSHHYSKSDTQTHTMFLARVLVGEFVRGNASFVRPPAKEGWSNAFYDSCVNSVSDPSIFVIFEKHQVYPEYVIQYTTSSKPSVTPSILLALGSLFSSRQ

With `NC(=O)c1ccc(Oc2ccc(C(N)=O)cc2)cc1` [OUL35, 4,4′-oxydibenzamide], the IC50 was greater than 100 µM against ARTD12/PARP12; greater than 20 µM on ARTD7/PARP15; greater than 100 µM against ARTD3/PARP3 [1]; greater than 100 µM at ARTD6/PARP5b; greater than 100 µM against ARTD5/PARP5a; 22.6 µM against ARTD4/PARP4 [4]. Further, the “toxicity in the control cells” value in [2] was “not toxic to control cells”. Further, the “stabilization of catalytic domain (DSF)” value at ARTD15/PARP16 (100 μM OUL35) was “stabilized the catalytic domains”. Besides, the ΔTm at 100 µM at ARTD15/PARP16 (read-out: ΔTm (DSF), ° C. ± STDEV) was found to be 2.45 ± 0.11 °C; on ARTD4/PARP4 [3] it was 0.84 ± 0.14 °C; at ARTD3/PARP3 [5], 0.09 ± 0.32 °C. The “pIC50 ± SEM” value against ARTD4/PARP4 [4] is on record as 4.65 ± 0.17. Moreover, the cytotoxic effect result in the data set with HeLa cells was “no cytotoxic effect”. For the same compound, the “sensitivity to hydroxyurea-induced DNA damage” value in data set [6] was “more sensitive to DNA damage in the presence of OUL35”.
